# Measured values published in US4309425A (priority 1980, dated 1982).
# Read-outs that look alike come from different tables or passages of the source.
# Columns and labels:
# Erysiphe cichoracearum [1] = assay: cucumber powdery mildew photostability test; type: in vivo; details: Golovinomyces cichoracearum, 168 h, xenon arc 3500 foot candles 16 hours, 7 days
# Method: (§1) Compounds of this invention are dissolved in acetone in an amount equal to 6% of the final volume and then suspended at a concentration of 20 ppm in purified water containing 25 ppm of the surfactant Alkanol® XC (sodium alkyl naphthalene sulfonate). This suspension is sprayed to the point of run-off in cucumber seedlings. When the foliage is dry, the plants are exposed to 3500 foot candles of light from a xenon arc source for a period of 16 hours. This light source approximates the spectrum of natural sunlight, and is used to assess photostability of the compounds of this invention on plant foliage. The following day, the plants are inoculated with a spore suspension of the fungus Erysiphe cichoracearum and incubated in a growth room for 7 days. Disease ratings are then made.
# Phytophthora infestans [2] = assay: whole plant or invertebrate; type: in vivo; details: in Solanum lycopersicum, 96 h, read-out: % control tomato late blight in a photostability test
# [3] = tested on: Puccinia graminis var. tritici; assay: whole plant or invertebrate; type: in vivo; details: 192 h, read-out: % control wheat rust in residual wash-off test
# Erysiphe cichoracearum [4] = assay: cucumber powdery mildew preventive test; type: in vivo; details: Golovinomyces cichoracearum, 168 h, 7 days
# Method: (§2) Compounds of this invention are dissolved in acetone in an amount equal to 6% of the final volume and then suspended at a concentration of 20 ppm in purified water containing 25 ppm of the surfactant Alkanol® XC (sodium alkyl naphthalene sulfonate). This suspension is sprayed to the point of run-off on cucumber seedlings. The following day, the plants are inoculated with a spore suspension of the fungus Erysiphe cichoracearum and incubated in a growth room for 7 days. Disease ratings are then made. […] Phytotoxicity in the form of foliar burn or growth reduction was observed on some of the plants in association with disease control.
# Pythium = Pythium infested soil test, cotton; type: in vivo; details: 1.5 kg/ha, 8 days
# Text: (§3) Pythium infested soil was placed in a 900 cc cup. Compounds of this invention were mixed at a rate of 1.5 kg/ha in a section 2" wide×2" deep×4" long to simulate an in-the-row application. Five cotton seeds were planted in the treated soil. After 8 days, the cotton plants were removed and rated for disease control.
# [5] = tested on: Puccinia graminis var. tritici; assay: whole plant or invertebrate; type: in vivo; details: 192 h, read-out: % control wheat rust in preventive test
# Venturia inaequalis [6] = assay: apple scab residual wash-off test; type: in vivo; details: 1/2 inch simulated rainfall, 10-12 days
# Method: as §2, with “apple” for “cucumber”, “day, 1/2 inch of simulated rainfall is applied to the foliage of the plants. When the foliage is dry,” for “day,”, “Venturia inaequalis” for “Erysiphe cichoracearum”, “10-12” for “7”, “burn” for “burn or growth reduction”, “on” for “on some of”
# Venturia inaequalis [7] = assay: apple scab preventive test; type: in vivo; details: 10-12 days
# Method: as §2, with “apple” for “cucumber”, “Venturia inaequalis” for “Erysiphe cichoracearum”, “10-12” for “7”, “burn” for “burn or growth reduction”
# Phytophthora infestans [8] = assay: whole plant or invertebrate; type: in vivo; details: in Solanum lycopersicum, 96 h, read-out: % control tomato late blight in a residual wash-off test
# [9] = tested on: Puccinia graminis var. tritici; assay: whole plant or invertebrate; type: in vivo; details: 192 h, read-out: % control wheat rust in a photostability test
# [10] = tested on: adult cotton boll weevils (Anthonomus grandis); assay: adult cotton boll weevils spray test; type: in vivo; details: 1% acetone solution, 24 hours
# Method: Five adult cotton boll weevils (Anthonomus grandis) were confined in a 4-oz. wide mouth jar. These were sprayed with a 1% acetone solution of the indicated compounds. Percent mortality after 24 hours is set forth below.
# Erysiphe cichoracearum [11] = assay: cucumber powdery mildew residual wash-off test; type: in vivo; details: Golovinomyces cichoracearum, 168 h, 1/2 inch simulated rainfall, 7 days
# Method: Compounds of this invention are dissolved in acetone in an amount equal to 6% of the final volume and then suspended at a concentration of 20 ppm in purified water containing 25 ppm of the surfactant Alkanol® XC (sodium alkyl naphthalene sulfonate). This suspension is sprayed to the point of run-off on cucumber seedlings. The following day, 1/2 inch of simulated rainfall is applied to the foliage of the plants. When the foliage is dry, the plants are inoculated with a spore suspension on the fungus Erysiphe cichoracearum and incubated in a growth room for 7 days. Disease ratings are then made.
# Rhizoctonia solani = Rhizoctonia solani infested soil test, cotton; type: in vivo; details: 192 h, 1.5 kg/ha, 8 days
# Text: as §3, with “Rhizoctonia solani-infested” for “Pythium infested”
# [12] = tested on: Eggs of the beet armyworm (Spodoptera exigua); assay: beet armyworm egg (ovicidal) test, % eggs failing to hatch; type: in vivo; details: 72 h, three days, read-out: % Control (% eggs failing to hatch); for mortality at 1 %: 1% in acetone; for mortality at 200 ppm: 200 ppm in acetone
# Method: Eggs of the beet armyworm (Spodoptera exigua), laid on cellophane discs each containing 50-75 eggs, were placed in petri dishes and lightly sprayed with 1% concentrations of the indicated compounds in acetone solution. Three days later, percent control (% eggs failing to hatch) was determined.
# Eggs of the beet armyworm (Spodoptera exigua), laid on cellophane discs each containing 50-75 eggs, were placed in petri dishes and lightly sprayed with 200 ppm concentration of the indicated compounds in acetone solution. Three days later, percent control (% eggs failing to hatch) was determined.
# Venturia inaequalis [13] = assay: apple scab photostability test; type: in vivo; details: xenon arc 3500 foot candles 16 hours, 10-12 days
# Method: as §1, with “on apple” for “in cucumber”, “Venturia inaequalis” for “Erysiphe cichoracearum”, “10-12” for “7”, “made. […] Phytotoxicity in the form of foliar burn was observed on some of the plants in association with disease control.” for “made.”
# adult houseflies = adult houseflies spray test; type: in vivo, housefly; details: Musca domestica; 1% acetone solutions, 24 hours
# Text: Twenty adult houseflies were confined in each of several cylindrical stainless steel cages (7.5 cm D×4 cm high) with wire screens of the ends. These were sprayed with 1% acetone solutions of the indicated compounds.
# Erisyphe cichoracearum = assay: cucumber powdery mildew curative test; type: in vivo; details: Cucumis sativus, 144 h, sprayed day after inoculation, additional 6 days
# Text: Cucumber plants are inoculated with a spore suspension of the fungus Erisyphe cichoracearum and in a growth room overnight. The following day, the plants are sprayed to the point of run-off with a suspension prepared by dissolving compounds of this invention in acetone in an amount equal to 6% of the final volume and then suspended at a concentration of 20 ppm in purified water containing 25 ppm of the surfactant Alkanol® XC (sodium alkyl naphthalene sulfonate). Plants are returned to the growth room for an additional 6 days when disease ratings are then made. […] Phytotoxicity in the form of foliar burn or growth reduction was observed on some of the plants in association with disease control.
# Phytophthora infestans [14] = type: in vivo; details: 20 ppm, 4 days
structure (smiles),measurement,setting,value
CCCCN(SN(c1cc(C(F)(F)F)ccc1Cl)c1c([N+](=O)[O-])cc([N+](=O)[O-])cc1C(F)(F)F)S(=O)(=O)N(C)C,pest or weed control at 20 ppm,Erysiphe cichoracearum [1],80%
same,pest or weed control at 20 ppm,Phytophthora infestans [2],90%
same,pest or weed control at 20 ppm,[3],90%
same,pest or weed control at 20 ppm,Erysiphe cichoracearum [4],100%
same,% control Pythium,Pythium,0%
same,pest or weed control at 20 ppm,[5],100%
same,pest or weed control at 20 ppm,Venturia inaequalis [6],100%
same,pest or weed control at 20 ppm,Venturia inaequalis [7],100%
same,pest or weed control at 20 ppm,Phytophthora infestans [8],93%
same,pest or weed control at 20 ppm,[9],80%
same,mortality at 1 %,[10],100%
same,pest or weed control at 20 ppm,Erysiphe cichoracearum [11],98%
same,pest or weed control at 1500 g/ha,Rhizoctonia solani,0%
same,mortality at 1 %,[12],100%
same,pest or weed control at 20 ppm,Venturia inaequalis [13],0%
same,mortality at 1 %,adult houseflies,100%
same,pest or weed control at 20 ppm,Erisyphe cichoracearum,99%
COC(=O)CN(SN(c1cc(C(F)(F)F)ccc1Cl)c1c([N+](=O)[O-])cc([N+](=O)[O-])cc1C(F)(F)F)S(=O)(=O)c1ccc(C)cc1,pest or weed control at 20 ppm,Erysiphe cichoracearum [1],0%
same,pest or weed control at 20 ppm,Phytophthora infestans [2],0%
same,pest or weed control at 20 ppm,[3],25%
same,% control tomato late blight in a preventive test,Phytophthora infestans [14],0%
same,pest or weed control at 20 ppm,Erysiphe cichoracearum [4],0%
same,% control Pythium,Pythium,50%
same,pest or weed control at 20 ppm,[5],30%
same,pest or weed control at 20 ppm,Venturia inaequalis [6],0%
same,pest or weed control at 20 ppm,Venturia inaequalis [7],0%
same,pest or weed control at 20 ppm,Phytophthora infestans [8],0%
same,pest or weed control at 20 ppm,[9],20%
same,pest or weed control at 20 ppm,Erysiphe cichoracearum [11],0%
same,pest or weed control at 1500 g/ha,Rhizoctonia solani,50%
same,pest or weed control at 20 ppm,Venturia inaequalis [13],0%
same,pest or weed control at 20 ppm,Erisyphe cichoracearum,0%
Cc1ccc(S(=O)(=O)N(C)SN(c2c(F)cc(F)cc2F)c2c([N+](=O)[O-])cc([N+](=O)[O-])cc2C(F)(F)F)cc1,pest or weed control at 20 ppm,Erysiphe cichoracearum [1],100%
same,pest or weed control at 20 ppm,Phytophthora infestans [2],100%
same,pest or weed control at 20 ppm,[3],97%
same,% control tomato late blight in a preventive test,Phytophthora infestans [14],100%
same,pest or weed control at 20 ppm,Erysiphe cichoracearum [4],100%
same,% control Pythium,Pythium,100%
same,pest or weed control at 20 ppm,[5],100%
same,pest or weed control at 20 ppm,Venturia inaequalis [6],100%
same,pest or weed control at 20 ppm,Venturia inaequalis [7],100%
same,pest or weed control at 20 ppm,Phytophthora infestans [8],100%
same,pest or weed control at 20 ppm,[9],70%
same,pest or weed control at 20 ppm,Erysiphe cichoracearum [11],100%
same,pest or weed control at 1500 g/ha,Rhizoctonia solani,70%
same,pest or weed control at 20 ppm,Venturia inaequalis [13],80%
same,pest or weed control at 20 ppm,Erisyphe cichoracearum,99%
"COCCN(SN(c1cc(C(F)(F)F)ccc1Cl)c1c([N+](=O)[O-])cc([N+](=O)[O-])cc1C(F)(F)F)S(=O)(=O)c1ccc(C)cc1 [N-[N-[2-chloro-5-(trifluoromethyl)phenyl]-N-[2,4-dinitro-6-trifluoromethylphenyl]aminothio]-N-(2-methoxyethyl)-4-methylbenzenesulfonamide]",mortality at 200 ppm,[12],100%
O=C1CCCN1SN(c1cc(C(F)(F)F)ccc1Cl)c1c([N+](=O)[O-])cc([N+](=O)[O-])cc1C(F)(F)F,pest or weed control at 20 ppm,Erysiphe cichoracearum [1],97%
same,pest or weed control at 20 ppm,[3],100%
same,pest or weed control at 20 ppm,Erysiphe cichoracearum [4],100%
same,% control Pythium,Pythium,50%
same,pest or weed control at 20 ppm,[5],100%
same,pest or weed control at 20 ppm,Venturia inaequalis [6],75%
same,pest or weed control at 20 ppm,Phytophthora infestans [8],50%
same,pest or weed control at 20 ppm,[9],100%
same,mortality at 1 %,[10],100%
same,pest or weed control at 20 ppm,Erysiphe cichoracearum [11],30%
same,pest or weed control at 1500 g/ha,Rhizoctonia solani,90%
same,mortality at 1 %,[12],100%
same,pest or weed control at 20 ppm,Venturia inaequalis [13],50%
same,mortality at 1 %,adult houseflies,100%
same,pest or weed control at 20 ppm,Erisyphe cichoracearum,100%
CN(SN(c1cc(C(F)(F)F)ccc1Cl)c1c([N+](=O)[O-])cc([N+](=O)[O-])cc1C(F)(F)F)S(=O)(=O)c1ccc2ccccc2c1,pest or weed control at 20 ppm,Erysiphe cichoracearum [1],75%
same,pest or weed control at 20 ppm,Phytophthora infestans [2],100%
same,pest or weed control at 20 ppm,[3],100%
same,pest or weed control at 20 ppm,Erysiphe cichoracearum [4],100%
same,% control Pythium,Pythium,0%
same,pest or weed control at 20 ppm,[5],100%
same,pest or weed control at 20 ppm,Venturia inaequalis [6],100%
same,pest or weed control at 20 ppm,Venturia inaequalis [7],50%
same,pest or weed control at 20 ppm,Phytophthora infestans [8],100%
same,pest or weed control at 20 ppm,[9],100%
same,mortality at 1 %,[10],100%
same,pest or weed control at 20 ppm,Erysiphe cichoracearum [11],85%
same,pest or weed control at 1500 g/ha,Rhizoctonia solani,0%
same,mortality at 1 %,[12],100%
same,pest or weed control at 20 ppm,Venturia inaequalis [13],0%
same,mortality at 1 %,adult houseflies,100%
same,pest or weed control at 20 ppm,Erisyphe cichoracearum,50%
"CN(SN(c1cc(C(F)(F)F)ccc1Cl)c1c([N+](=O)[O-])cc([N+](=O)[O-])cc1C(F)(F)F)S(=O)(=O)c1ccc(Cl)cc1 [4-chloro-N-[N-(2-chloro-5-trifluoromethylphenyl)-N-(2,4-dinitro-6-trifluoromethylphenyl)aminothio]-N-methylbenzenesulfonamide]",mortality at 200 ppm,[12],100%
